Results as given in patent EP0358047A2, “Method of controlling phytopathogenic fungi” (AMERICAN CYANAMID COMPANY, priority 1988, dated 1990).
Like-named read-outs stand apart in the source and are kept apart here.

Experiments:
Test in all cases: In vitro fungicide screen: inhibition of mycelial growth on agar medium
Type in all cases: cell-based
Pythium ultimum (Pyth) = details: two days, room temperature; for inhibition at 1 ppm: Rate 1 ppm in agar medium
Protocol: (§1) Severe soilborne diseases such as damping off, seedling blight, crown rot, and root rot, among others are caused by certain plant pathogenic fungi. An in vitro assay is conducted to determine whether test compounds will inhibit the mycelial growth of said fungi. Pathogens, the method of testing, and the rating system used are reported below.
(§2) Assay fungi include the following plant pathogens: • Botrytis cinerea (Botry) • Pseudocerosporella herpotrichoides (Pseudo) • Pythium ultimum (Pyth) • Rhizoctonia solani (Rhiz)
(§3) The test compound (2.5-10 mg) is dissolved in 0.5 mL acetone, diluted with 4.5 mL sterile deionized water, and mixed with 95 mL of an autoclaved and partially cooled, chemically defined agar medium in a 250 mL flask. Test compounds that are insoluble are prepared as a fine suspension ultrasonically, or with a glass tissue grinder, before addition to the medium. The chemically defined medium used in these experiments is as follows: • 15 g of sucrose, 0.5 g NH4Cl, 0.5 g KNO3, 0.5 g KH2PO4, 0.5 g K2HP04, 0.25 g MgSO4.7H2O, 50 mg CaC)2.6H20, 0.75 mg FeSO4.7H2O, 0.22 mg MnSO4.5H2O, 0.6 mg CuSO4.5H2O, 7.5 mg ZnC12, 2.5 mg thiamine, 60 µg(NH4)6Mo7O24.4H2O, 90 u.g H3BO3, 5 ug biotin, 20 g agar, and water to 1L.
(§4) The mixture of test compound and agar medium as described above is poured into several 100 mm x 15 mm sterile plastic plates and allowed to solidify. The surface of each plate is inoculated with a single disc of mycelium and agar cut with an 8 mm diameter cork borer from actively growing cultures of assay fungi on a chemically defined agar medium. The plates are incubated at room temperature. Growth inhibition is determined when the mycelial growth on unamended control media has reached the edge of the petri plates. The time interval varies depending on the growth rate of the fungus; two days for Pythium ultimum (Pyth) and Rhizoctonia solani (Rhiz), five days for Botrytis cinerea (Botry), and 7-10 days for Pseudocercosporella herpotrichoides (Pseudo). Each colony diameter is measured and compared with the untreated control and the percent inhibition is calculated as follows: [formula] Each test includes a solvent blank consisting of the formulation without a test compound in addition to the untreated control.

[1] = test system: Rhizoctonia solani (Rhiz); details: for inhibition at 10 ppm: read-out: % Growth Inhibition Rhiz
Protocol: as §1, §2, §3, §4

[2] = test system: Pseudocercosporella herpotrichoides (Pseudo); details: 7-10 days, room temperature
Protocol: as §1, §2, §3, §4

Botrytis cinerea (Botry) = details: five days, room temperature
Protocol: as §1, §2, §3, §4

[3] = Globisporangium ultimum, 48 h, Rate 100 ppm in agar medium
[4] = Rhizoctonia solani, 48 h, Rate 100 ppm in agar medium, two days, room temperature
[5] = Oculimacula yallundae, Rate 100 ppm in agar medium
[6] = Botrytis cinerea, 120 h, Rate 100 ppm in agar medium
[7] = Rhizoctonia solani, 48 h, Rate 10 ppm in agar medium, two days, room temperature

Structure (SMILES)	inhibition at 100 ppm (Pythium ultimum (Pyth); [3])	inhibition at 100 ppm [1, 4]	inhibition at 100 ppm [2, 5]	inhibition at 100 ppm (Botrytis cinerea (Botry); [6])	other results
N#Cc1cc[nH]c1-c1ccc(Cl)cc1 [2(p-Chlorophenyl)-pyrrole-3-carbonitrile]	95%	61%	86%	68%	
O=[N+]([O-])c1c(-c2ccccc2)[nH]c(Br)c1Br [2,3-Dibromo-4-nitro-5-phenyl-pyrrole]	97%	63%	71%	87%	
O=[N+]([O-])c1c(-c2ccc(C(F)(F)F)cc2)[nH]c(Cl)c1Cl [2,3-Dichloro-4-nitro-5-(α,α,α-trifluoro-p-tolyl)-pyrrole]	100%	100%	100%	100%	
O=[N+]([O-])c1c(-c2ccccc2)[nH]c(Cl)c1Cl [2,3-Dichloro-4-nitro-5-phenyl-pyrrole, 2,3-Dichloro-4-nitro-5-phenylpyrrole]	100%	81%	100%	97%	
O=[N+]([O-])c1c(-c2ccc(Cl)cc2)[nH]c(Cl)c1Cl [2,3-Dichloro-5-(p-chlorophenyl) -4-nitropyrrole]	92.1%	96%	50%	96.3%	
O=[N+]([O-])c1c(Br)[nH]c(Br)c1-c1ccccc1 [2,5-dibromo-3-nitro-4-phenyl-pyrrole]					inhibition at 1 ppm (Pythium ultimum (Pyth); Globisporangium ultimum, 48 h): 100%; inhibition at 10 ppm [1, 7]: 100%; inhibition at 10 ppm ([2]; Oculimacula yallundae, Rate 10 ppm in agar medium): 100%
N#Cc1cc[nH]c1-c1cccc(Cl)c1 [2-(m-Chloro-phenyl)pyrrole-3-carbonitrile]	82%	95%	67%	74%	
O=[N+]([O-])c1c(-c2ccc(Br)cc2)[nH]c(Cl)c1Cl [2-(p-Bromo-phenyl)-4,5-dichloro-3-nitropyrrole]	68%	92%	83%	89%	
N#Cc1cc[nH]c1-c1ccccc1 [2-Phenylpyrrole-3-carbonitrile, 2-Phenylpyrrole-3-carbonitrile]	100%	89%	100%	95%	
N#Cc1c(-c2ccccc2Cl)[nH]c(Cl)c1Cl [4,5 Dichloro-2-(o-chlorophenyl) pyrrole-3-carbo-nitrile]					% Growth Inhibition Pyth (Pythium ultimum (Pyth); Rate 100 ppm in agar medium): 0%; % Growth Inhibition Rhiz ([1]; Rate 100 ppm in agar medium, two days, room temperature): 52.6%; % Growth Inhibition Pseudo ([2]; Rate 100 ppm in agar medium): 16.7%; % Growth Inhibition Botry (Botrytis cinerea (Botry); Rate 100 ppm in agar medium): 3.1%
N#Cc1c(-c2ccc(Cl)cc2)[nH]c(Cl)c1Cl [4,5-Dichloro-2-(p-chlorophenyl)pyrrole-3-carbonitrile]	45%	64.7%	42.8%	66.7%	inhibition at 25 ppm (Pythium ultimum (Pyth); Globisporangium ultimum, 48 h, Rate 25 ppm in agar medium): 34.2%; inhibition at 50 ppm (Pythium ultimum (Pyth); Globisporangium ultimum, 48 h, Rate 50 ppm in agar medium): 44.7%; inhibition at 25 ppm ([1]; Rhizoctonia solani, 48 h, Rate 25 ppm in agar medium, two days, room temperature): 73.3%; inhibition at 50 ppm ([1]; Rhizoctonia solani, 48 h, Rate 50 ppm in agar medium, two days, room temperature): 73.3%; inhibition at 25 ppm ([2]; Oculimacula yallundae, Rate 25 ppm in agar medium): 0%; inhibition at 50 ppm ([2]; Oculimacula yallundae, Rate 50 ppm in agar medium): 40%; inhibition at 25 ppm (Botrytis cinerea (Botry); Botrytis cinerea, 120 h, Rate 25 ppm in agar medium): 82.1%; inhibition at 50 ppm (Botrytis cinerea (Botry); Botrytis cinerea, 120 h, Rate 50 ppm in agar medium): 71.4%
N#Cc1c(-c2ccc(Cl)cc2)[nH]c(C(F)(F)F)c1Br [4-Bromo-2-(p-chlorophenyl)-5-(trifluoromethyl)pyrrole-3-carbonitrile]					inhibition at 10 ppm ([1]; Rhizoctonia solani, 48 h): 100%
N#Cc1cc([N+](=O)[O-])c(-c2ccc(Cl)c(Cl)c2)[nH]1 [5-(3,4-Dichlorophenyl)-4-nitropyrrole-2-carbonitrile]					inhibition at 1 ppm (Pythium ultimum (Pyth); Globisporangium ultimum, 48 h): 100%; inhibition at 10 ppm [1, 7]: 100%
